Results: BindingDB's records for doi:10.1021/jm00088a003 (Merck Research Laboratories, 1992)
pIC50: −log10 of the molar value.

What follows are molecules tested against T1, Dimer of Gag-Pol polyprotein [489-587] (Human immunodeficiency virus 1, UniProt P12497) (assay: Protease Inhibition Assay). Conditions: pH 5.5; 30 °C.
T1 construct: 489-587
Description: Sensitivity of HIV-1 protease activity to protease inhibitors was determined by a peptide substrate cleavage assay. Protease products were analyzed on a reverse-phase high-pressure liquid chromatograph.

Row | SMILES | pIC50
1 | CC(C)(C)OC(=O)N[C@@H](Cc1ccccc1)[C@@H](O)C[C@@H](Cc1ccc(OCC(=O)O)cc1)C(=O)N[C@H]1c2ccccc2C[C@H]1O [2-{4-[(2R)-2-[(2S,3S)-3-{[(tert-butoxy)carbonyl]amino}-2-hydroxy-4-phenylbutyl]-2-{[(1S,2R)-2-hydroxy-2,3-dihydro-1H-inden-1-yl]carbamoyl}ethyl]phenoxy}acetic acid] | 10.40
2 | CC(C)(C)OC(=O)N[C@@H](Cc1ccccc1)[C@@H](O)C[C@@H](Cc1ccc(OCc2ccccc2)cc1)C(=O)N[C@H]1c2ccccc2C[C@H]1O [N-(2(R)-Hydroxy-1(S)-indany1)-5(S)-[(tert-butyloxycarbonyl)amino]-4(S)-hydroxy-6-phenyl-2(R)-[[4-(benzyloxy)phenyl]methyl]hexanamide] | 9.74
3 | CC(C)(C)OC(=O)N[C@@H](Cc1ccccc1)[C@@H](O)C[C@@H](Cc1ccc(OCC(=O)N2CCOCC2)cc1)C(=O)N[C@H]1c2ccccc2C[C@H]1O [tert-butyl N-[(2S,3S,5R)-3-hydroxy-5-{[(1S,2R)-2-hydroxy-2,3-dihydro-1H-inden-1-yl]carbamoyl}-5-({4-[2-(morpholin-4-yl)-2-oxoethoxy]phenyl}methyl)-1-phenylpentan-2-yl]carbamate] | 9.70
4 | CN(C)CCOc1ccc(C[C@H](C[C@H](O)[C@H](Cc2ccccc2)NC(=O)OC(C)(C)C)C(=O)N[C@H]2c3ccccc3C[C@H]2O)cc1 [tert-butyl N-[(2S,3S,5R)-5-({4-[2-(dimethylamino)ethoxy]phenyl}methyl)-3-hydroxy-5-{[(1S,2R)-2-hydroxy-2,3-dihydro-1H-inden-1-yl]carbamoyl}-1-phenylpentan-2-yl]carbamate] | 8.68
5 | CC(C)(C)OC(=O)N[C@@H](Cc1ccccc1)[C@@H](O)C[C@@H](Cc1ccc(OCCO)cc1)C(=O)N[C@H]1c2ccccc2C[C@H]1O [tert-butyl N-[(2S,3S,5R)-3-hydroxy-5-{[(1S,2R)-2-hydroxy-2,3-dihydro-1H-inden-1-yl]carbamoyl}-5-{[4-(2-hydroxyethoxy)phenyl]methyl}-1-phenylpentan-2-yl]carbamate] | 10.05
6 | CC(C)(C)OC(=O)N[C@@H](Cc1ccc(O)cc1)[C@@H](O)C[C@@H](Cc1ccccc1)C(=O)N[C@H]1c2ccccc2C[C@H]1O [N-(2(R)-Hydroxy-1(S)-indanyl)-5(S)-[(tert-butyloxycarbonyl)amino]-4(S)-hydroxy-6-(4-hydroxyphenyl)-2-(R)-(phenylmethyl)hexanamide] | 9.46
7 | CC(C)(C)OC(=O)N[C@@H](Cc1ccc(OCCN2CCOCC2)cc1)[C@@H](O)C[C@@H](Cc1ccc(OCCN2CCOCC2)cc1)C(=O)N[C@H]1c2ccccc2C[C@H]1O [tert-butyl N-[(2S,3S,5R)-3-hydroxy-5-{[(1S,2R)-2-hydroxy-2,3-dihydro-1H-inden-1-yl]carbamoyl}-1-{4-[2-(morpholin-4-yl)ethoxy]phenyl}-5-({4-[2-(morpholin-4-yl)ethoxy]phenyl}methyl)pentan-2-yl]carbamate] | 8.72
8 | CN1CCN(CCOc2ccc(C[C@H](C[C@H](O)[C@H](Cc3ccccc3)NC(=O)OC(C)(C)C)C(=O)N[C@H]3c4ccccc4C[C@H]3O)cc2)CC1 [tert-butyl N-[(2S,3S,5R)-3-hydroxy-5-{[(1S,2R)-2-hydroxy-2,3-dihydro-1H-inden-1-yl]carbamoyl}-5-({4-[2-(4-methylpiperazin-1-yl)ethoxy]phenyl}methyl)-1-phenylpentan-2-yl]carbamate] | 9.70
9 | CC(C)(C)OC(=O)N[C@@H](Cc1ccccc1)[C@@H](O)C[C@@H](Cc1ccc(OCC[N+]2(O)CCOCC2)cc1)C(=O)N[C@H]1c2ccccc2C[C@H]1O [4-(2-{4-[(2R)-2-[(2S,3S)-3-{[(tert-butoxy)carbonyl]amino}-2-hydroxy-4-phenylbutyl]-2-{[(1S,2R)-2-hydroxy-2,3-dihydro-1H-inden-1-yl]carbamoyl}ethyl]phenoxy}ethyl)-4-hydroxymorpholin-4-ium] | 9.70
10 | CC(C)(C)OC(=O)N[C@@H](Cc1ccc(OCCN2CCOCC2)cc1)[C@@H](O)C[C@@H](Cc1ccccc1)C(=O)N[C@H]1c2ccccc2C[C@H]1O [tert-butyl N-[(2S,3S,5R)-5-benzyl-3-hydroxy-5-{[(1S,2R)-2-hydroxy-2,3-dihydro-1H-inden-1-yl]carbamoyl}-1-{4-[2-(morpholin-4-yl)ethoxy]phenyl}pentan-2-yl]carbamate] | 9.26
11 | CC(C)(C)OC(=O)N[C@@H](Cc1ccccc1)[C@@H](O)C[C@@H](Cc1ccc(OCCN2CCSCC2)cc1)C(=O)N[C@H]1c2ccccc2C[C@H]1O [N-(2(R)-Hydroxy-1(S)-indanyl)-5(S)-[(tert-butyloxycarbonyl)amino]-4(S)-hydroxy-6-phenyl-2(R)-[[4-[2-(thiamorpholin-4-yl)ethoxy]phenyl]methyl]hexanamide] | 9.33
12 | COCCN(CCOC)CCOc1ccc(C[C@H](C[C@H](O)[C@H](Cc2ccccc2)NC(=O)OC(C)(C)C)C(=O)N[C@H]2c3ccccc3C[C@H]2O)cc1 [N-(2(R)-Hydroxy-1(S)-indanyl)-5(S)-[(tert-butyloxycarbonyl)amino]-4(S)-hydroxy-6-phenyl-2(R)-[[4-[2-[N,N-bis(2-methoxyethyl)amino]ethoxy]phenyl]methyl]hexanamide] | 9.05
13 | CC(C)(C)OC(=O)N[C@@H](Cc1ccccc1)[C@@H](O)C[C@@H](Cc1ccc(OCCN2CCCCC2)cc1)C(=O)N[C@H]1c2ccccc2C[C@H]1O [tert-butyl N-[(2S,3S,5R)-3-hydroxy-5-{[(1S,2R)-2-hydroxy-2,3-dihydro-1H-inden-1-yl]carbamoyl}-1-phenyl-5-({4-[2-(piperidin-1-yl)ethoxy]phenyl}methyl)pentan-2-yl]carbamate] | 8.80
14 | CC(C)(C)OC(=O)N[C@@H](Cc1ccc(O)cc1)[C@@H](O)C[C@@H](Cc1ccc(O)cc1)C(=O)N[C@H]1c2ccccc2C[C@H]1O [N-(2(R)-Hydroxy-1(S)-indanyl)-5(S)-[(tert-butyloxycarbonyl)amino]-4(S)-hydroxy-6-(4-hydroxyphenyl)-2-(R)-[(4-hydroxyphenyl)methyl]hexanamide] | 9.82
15 | CC(C)(C)OC(=O)N[C@@H](Cc1ccccc1)[C@@H](O)C[C@@H](Cc1ccc(OCCN2CC[S+]([O-])CC2)cc1)C(=O)N[C@H]1c2ccccc2C[C@H]1O [tert-butyl N-[(2S,3S,5R)-3-hydroxy-5-{[(1S,2R)-2-hydroxy-2,3-dihydro-1H-inden-1-yl]carbamoyl}-5-({4-[2-(1-oxo-1,4-thiomorpholin-4-yl)ethoxy]phenyl}methyl)-1-phenylpentan-2-yl]carbamate] | 10.15
16 | CC(C)(C)OC(=O)N[C@@H](Cc1ccccc1)[C@@H](O)C[C@@H](Cc1ccc(OCCN2CCS(=O)(=O)CC2)cc1)C(=O)N[C@H]1c2ccccc2C[C@H]1O [N-(2(R)-Hydroxy-1(S)-indanyl)-5(S)-[(tert-butyloxycarbonyl)amino]-4(S)-hydroxy-6-phenyl-2(R)-[[4-[2-(1,1-dioxythiamorpholin-4-yl)ethoxy]phenyl]methyl]hexanamide] | 10.10
17 | CC(C)(C)OC(=O)N[C@@H](Cc1ccccc1)[C@@H](O)C[C@@H](Cc1ccc(OCCN2CCCC2)cc1)C(=O)N[C@H]1c2ccccc2C[C@H]1O [tert-butyl N-[(2S,3S,5R)-3-hydroxy-5-{[(1S,2R)-2-hydroxy-2,3-dihydro-1H-inden-1-yl]carbamoyl}-1-phenyl-5-({4-[2-(pyrrolidin-1-yl)ethoxy]phenyl}methyl)pentan-2-yl]carbamate] | 8.74
